Results: article PMC6934184, “Selective DNA-PKcs inhibition extends the therapeutic index of localized radiotherapy and chemotherapy” (The Journal of Clinical Investigation, 2019)

Biological target: T1, ADRBK2 (GRK3) (Homo sapiens, UniProt P35626)
T1 construct: purchased Thermo Fisher Scientific (Life Technologies) SelectScreen
Test: SelectScreen Z'LYTE
Type: biochemical
Method in brief: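 NU5455 was profiled across the SelectScreen Broad panel of kinase activity and binding assays. Z'LYTE reactions such as CSF1R ran at apparent Km ATP, while the Adapta CAMK1 assay used ATP listed as 10. Values are given as percent.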

T1 sequence (P35626 whole entry): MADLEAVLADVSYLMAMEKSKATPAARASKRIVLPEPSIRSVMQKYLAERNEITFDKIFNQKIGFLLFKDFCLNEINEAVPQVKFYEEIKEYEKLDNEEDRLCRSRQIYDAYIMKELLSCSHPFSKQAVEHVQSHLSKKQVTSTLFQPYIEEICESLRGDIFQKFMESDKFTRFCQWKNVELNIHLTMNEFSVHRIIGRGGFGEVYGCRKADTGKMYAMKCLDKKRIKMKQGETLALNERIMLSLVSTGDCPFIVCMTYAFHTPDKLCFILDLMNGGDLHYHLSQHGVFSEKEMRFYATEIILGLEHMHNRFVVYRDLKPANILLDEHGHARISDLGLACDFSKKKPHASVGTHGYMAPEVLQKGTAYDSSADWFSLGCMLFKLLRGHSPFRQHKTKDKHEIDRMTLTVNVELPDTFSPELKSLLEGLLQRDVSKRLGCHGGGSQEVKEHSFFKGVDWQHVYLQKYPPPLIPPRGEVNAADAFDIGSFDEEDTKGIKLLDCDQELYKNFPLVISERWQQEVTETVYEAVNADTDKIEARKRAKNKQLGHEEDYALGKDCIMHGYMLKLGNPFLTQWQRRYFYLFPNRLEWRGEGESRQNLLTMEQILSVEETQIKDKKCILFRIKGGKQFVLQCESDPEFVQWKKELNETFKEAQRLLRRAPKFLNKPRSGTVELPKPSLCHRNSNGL

## CN(C(=O)CN1CCOCC1)c1ccc2sc3c(-c4cccc5c(=O)cc(N6CC7CCC(C6)O7)oc45)cccc3c2c1 [NU5455]
  inhibition at 1 µM: 2.8%
